Assay results reported in paper PMC2267855, “Site-directed mutagenesis of Arginine282 suggests how protons and peptides are co-transported by rabbit PepT1” (The International Journal of Biochemistry & Cell Biology, 2008).
Residue numbers refer to the chain shown, from its start.

Key:
[1] = target: T1, wild-type PepT1 (Oryctolagus cuniculus, UniProt P36836); assay: Diethylpyrocarbonate inhibition of PepT1-mediated dipeptide uptake and protection by substrates; assay type: cell-based, rabbit; conditions: for protection of PepT1 from DEPC inhibition: 5 mM present during 1 mM DEPC incubation (15 min), uptake measured over 1 h
T1 construct: expressed in transfected cells; host or cells: Xenopus laevis oocytes injected with cRNA
T1 sequence (P36836 1-707): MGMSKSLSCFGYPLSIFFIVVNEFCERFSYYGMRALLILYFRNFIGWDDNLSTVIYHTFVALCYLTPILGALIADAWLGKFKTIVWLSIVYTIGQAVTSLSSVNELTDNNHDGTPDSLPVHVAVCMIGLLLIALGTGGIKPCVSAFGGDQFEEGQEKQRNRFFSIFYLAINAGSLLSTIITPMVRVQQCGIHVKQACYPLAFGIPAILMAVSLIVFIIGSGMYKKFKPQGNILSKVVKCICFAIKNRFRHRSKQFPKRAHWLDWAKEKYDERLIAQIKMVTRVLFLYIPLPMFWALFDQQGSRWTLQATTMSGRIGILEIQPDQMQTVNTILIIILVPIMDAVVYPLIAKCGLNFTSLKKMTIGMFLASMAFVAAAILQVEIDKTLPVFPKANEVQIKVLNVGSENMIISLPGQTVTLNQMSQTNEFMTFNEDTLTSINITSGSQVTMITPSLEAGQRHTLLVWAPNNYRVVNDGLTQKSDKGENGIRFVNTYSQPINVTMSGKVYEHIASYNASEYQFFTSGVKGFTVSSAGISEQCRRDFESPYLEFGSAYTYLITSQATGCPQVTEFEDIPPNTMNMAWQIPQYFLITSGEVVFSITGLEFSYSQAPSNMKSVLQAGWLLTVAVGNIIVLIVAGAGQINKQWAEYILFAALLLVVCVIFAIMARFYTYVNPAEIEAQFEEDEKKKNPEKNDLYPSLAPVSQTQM
Experimental: (§1) Zero-trans uptake of [^3H]-D-Phe-L-Gln (17.4 Ci/mmole, custom synthesised, Cambridge Research Biochemicals, Stockton-on-Tees, UK) was performed as previously described ([Meredith, 2004]). Briefly, 5 oocytes were incubated in 100 μl of uptake medium (95 mM NaCl, 2 mM KCl, 1 mM CaCl2, 0.42 mM MgCl2, 10 mM Tris/Hepes pH 7.4 or Tris/Mes pH 5.5) with tracer (0.4 μM) [^3H]-D-Phe-L-Gln. After incubation, the oocytes were washed sequentially five times in 1 ml of ice-cold 120 mM NaCl solution, lysed individually with 100 μl 2% (w/v) SDS and liquid scintillation counted. As a control non-injected oocytes were also incubated in uptake medium with [^3H]-D-Phe-L-Gln as above.
Diethylpyrocarbonate (DEPC) inhibition of PepT1 was performed using a similar protocol to that of [Terada, Saito, and Inui (1998)]. Briefly, PepT1 oocytes were preincubated with 1 mM DEPC for 15 min at pHout 5.5 in the absence or presence of the PepT1 substrates Gly-L-Gln, N-Acetyl-Phe ([Meredith et al., 2000]), and L-Ala-Tyramine (custom synthesised) and the non-substrate Tyr (all 5 mM). The oocytes were then washed in uptake medium before uptake assays were performed as detailed above.

[2] = target: T1, wild-type PepT1; assay: Membrane potential of oocytes expressing wild-type PepT1 (single microelectrode); assay type: cell-based, rabbit; conditions: 10 mM, pHout 5.5, 1 min
Experimental: (§2) Measurements of membrane potential were made by impaling oocytes with a single glass microelectrode (Intra 767 amplifier, WPI, Stevenage, Hertfordshire, UK) perfused in uptake medium (as above) with or without 0.4 μM D-Phe-L-Gln (synthesised in house), 0.6 mM Gly-L-Gln (Sigma, Poole, UK) or 10 mM 4-aminobenzoic acid (4-AMBA, Sigma). Two-electrode voltage clamp (TEVC) was performed by placing oocytes in a 0.1 ml recording chamber and perfusing with uptake solution (pH 5.5 or 7.4) at a rate of 15 ml/min. Oocytes were impaled by two agarose-cushioned microelectrodes filled with 3 M KCl (0.5–2.0 MΩ) and voltage-clamped at −60 mV using a Geneclamp 500B amplifier and PCLAMP 8.1 software (Axon Instruments, CA, USA). The holding potential was stepped from −60 mV over the range of −150 to +50 mV in 10 mV steps, each pulse lasting 100 ms, and returning to −60 mV in between test voltage pulses. Typically traces were filtered at 1 kHz during recording and digitized at 0.5–5 kHz using the DigiData 1200 interface (Axon Instruments, CA, USA). All experiments were carried out at room temperature.

[3] = target: T2, R282E-PepT1 (Oryctolagus cuniculus, UniProt P36836, R282E); assay: Membrane potential of oocytes expressing R282E-PepT1 (single microelectrode); assay type: cell-based, rabbit; conditions: 10 mM, pHout 5.5, 1 min
T2 construct: expressed in transfected cells; host or cells: Xenopus laevis oocytes injected with cRNA
T2 sequence (P36836 1-707 R282E): T1 sequence (P36836 1-707) with R282E
Experimental: as §2

[4] = target: T3, wild-type rabbit PepT1 (Oryctolagus cuniculus, UniProt P36836); assay: Inhibition of [3H]-D-Phe-L-Gln uptake into Xenopus oocytes expressing wild-type PepT1 (competition, Ki); assay type: cell-based; conditions: PepT1, data not shown; read-out: Ki (PepT1 substrate)
T3 construct: expressed in transfected cells; host or cells: Xenopus laevis oocytes injected with cRNA
T3 sequence (P36836 1-707): T1 sequence (P36836 1-707)
Experimental: as §1
The affinity of wild-type and mutant PepT1 were assessed by competition studies with 0.4 μM [^3H]-D-Phe-L-Gln and Gly-L-Gln present in the uptake medium in concentrations from 0 to 2 mM using the protocol above, and the Ki calculated using the method of [Deves and Boyd (1989)].

Compound: CC(=O)NC(Cc1ccccc1)C(=O)O (stereo not shown) [N-Acetyl-Phe]
- protection of PepT1 from DEPC inhibition [1]: largely prevented

Compound: Nc1ccc(C(=O)O)cc1 [4-AMBA, 4-aminobenzoic acid]
- membrane potential depolarisation [2]: failed to induce a depolarisation
- membrane potential depolarisation [3]: failed to induce a depolarisation

Compound: N[C@@H](Cc1ccc(O)cc1)C(=O)O [Tyr]
- protection of PepT1 from DEPC inhibition [1]: not

Compound: C[C@H](N)C(=O)NCCc1ccc(O)cc1 [L-Ala-Tyramine]
- Ki [4]: ~100 µM
- protection of PepT1 from DEPC inhibition [1]: only partially prevented

Compound: CCOC(=O)OC(=O)OCC [DEPC, Diethylpyrocarbonate]
- inhibition of PepT1 mediated dipeptide uptake ([1]; 1 mM, 15 min preincubation, pHout 5.5, uptake measured over 1 h): completely inhibited
